Assays:
AMBEL Ragweed, Common [1] = experiment: Postemergence herbicidal evaluation, AMBEL; assay type: in vivo, Ambrosia artemisifolia, L.; design: scale not given here; conditions: 0.062 kg/ha, postemergence spray, rated about two-three weeks after treatment
In short: (§1)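 Ratings from greenhouse plants scored about two to three weeks after a foliar spray; data from multiple tests averaged. Seedlings about two weeks old received roughly 0.006–0.400 kg/ha active compound in 80/20 acetone/water with 1.0% methylated seed oil.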

SETVI Foxtail, Green = experiment: Preemergence herbicidal evaluation, SETVI; assay type: in vivo, Setaria viridis, (L.) Beau; design: scale not given here; conditions: preemergence
In short: (§2)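 First, seed is blended with potting soil and sown over roughly an inch of soil per cup. Next, the surface is sprayed with an aqueous acetone solution delivering about 0.013–0.800 kg/ha. Finally, cups are grown in the greenhouse and rated after 4–5 weeks.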

AMBEL Ragweed, Common [2] = experiment: Preemergence herbicidal evaluation, AMBEL; assay type: in vivo, Ambrosia artemisifolia, L.; design: scale not given here; conditions: preemergence
In short: as §2

[3] = test system: IPOHE Morningglory, Ivyleaf; experiment: Postemergence herbicidal evaluation, IPOHE; assay type: in vivo, Ipomoea hederacea, (L.) Jacq.; design: scale not given here; conditions: postemergence spray, rated about two-three weeks after treatment
In short: as §1

ZEAMX Corn, Field [4] = experiment: Preemergence herbicidal evaluation, ZEAMX; assay type: in vivo, Zea mays, L. (Sammel-Bezeichnung); design: scale not given here; conditions: preemergence
In short: as §2

GLXMAW Soybean, Williams = experiment: Postemergence herbicidal evaluation, GLXMAW; assay type: in vivo, Glycine max, (L.) Merr. cv Williams; design: scale not given here; conditions: postemergence spray, rated about two-three weeks after treatment
In short: as §1

[5] = test system: CHEAL Lambsquarters, Common; experiment: Preemergence herbicidal evaluation, CHEAL; assay type: in vivo, Chenopodium album, L.; design: scale not given here; conditions: preemergence
In short: as §2

CASOB Sicklepod [6] = experiment: Preemergence herbicidal evaluation, CASOB; assay type: in vivo, Cassia obtusifolia, L.; design: scale not given here; conditions: preemergence
In short: as §2

CASOB Sicklepod [7] = experiment: Postemergence herbicidal evaluation, CASOB; assay type: in vivo, Cassia obtusifolia, L.; design: scale not given here; conditions: postemergence spray, rated about two-three weeks after treatment
In short: as §1

[8] = test system: CHEAL Lambsquarters, Common; experiment: Postemergence herbicidal evaluation, CHEAL; assay type: in vivo, Chenopodium album, L.; design: scale not given here; conditions: postemergence spray, rated about two-three weeks after treatment
In short: as §1

[9] = test system: IPOHE Morningglory, Ivyleaf; experiment: Preemergence herbicidal evaluation, IPOHE; assay type: in vivo, Ipomoea hederacea, (L.) Jacq.; design: scale not given here; conditions: preemergence
In short: as §2

ABUTH Velvetleaf = experiment: Postemergence herbicidal evaluation, ABUTH; assay type: in vivo, Abutilon theophrasti, Medic.; design: scale not given here; conditions: postemergence spray, rated about two-three weeks after treatment
In short: as §1

ZEAMX Corn, Field [10] = experiment: Postemergence herbicidal evaluation, ZEAMX; assay type: in vivo, Zea mays, L. (Sammel-Bezeichnung); design: scale not given here; conditions: postemergence spray, rated about two-three weeks after treatment
In short: as §1

CCc1cccc(-n2nnc3cc(F)c(-n4c(=O)cc(C(F)(F)F)n(C)c4=O)cc32)c1 [Example 29, 3-[1-(3-ethylphenyl)-5-fluoro-1H-1,2,3-benzotriazol-6-yl]-1-methyl-6-(trifluoromethyl)-2,4(1H,3H)-pyrimidinedione]
4.0: ZEAMX herbicidal rating (ZEAMX Corn, Field [4]; rate 0.062 kg/ha)
0.0: AMBEL herbicidal rating (AMBEL Ragweed, Common [2]; rate 0.016 kg/ha) | AMBEL herbicidal rating (AMBEL Ragweed, Common [2]; rate 0.032 kg/ha) | ZEAMX herbicidal rating (ZEAMX Corn, Field [4]; rate 0.016 kg/ha) | Postemergence herbicidal rating CASOB (CASOB Sicklepod [7]; 0.008 kg/ha) | IPOHE herbicidal rating ([9]; rate 0.016 kg/ha)
3.0: AMBEL herbicidal rating (AMBEL Ragweed, Common [2]; rate 0.062 kg/ha) | Postemergence herbicidal rating CASOB (CASOB Sicklepod [7]; 0.062 kg/ha) | IPOHE herbicidal rating ([9]; rate 0.032 kg/ha)
5.0: ZEAMX herbicidal rating (ZEAMX Corn, Field [4]; rate 0.125 kg/ha) | Postemergence herbicidal rating GLXMAW (GLXMAW Soybean, Williams; 0.008 kg/ha) | Postemergence herbicidal rating ZEAMX (ZEAMX Corn, Field [10]; 0.016 kg/ha) | Postemergence herbicidal rating ZEAMX (ZEAMX Corn, Field [10]; 0.032 kg/ha) | Postemergence herbicidal rating ZEAMX (ZEAMX Corn, Field [10]; 0.062 kg/ha)
1.0: CASOB herbicidal rating (CASOB Sicklepod [6]; rate 0.016 kg/ha) | CASOB herbicidal rating (CASOB Sicklepod [6]; rate 0.125 kg/ha)
52 to 65 °C: melting point
6.0: SETVI herbicidal rating (SETVI Foxtail, Green; rate 0.016 kg/ha) | IPOHE herbicidal rating ([9]; rate 0.062 kg/ha)
7.0: AMBEL herbicidal rating (AMBEL Ragweed, Common [2]; rate 0.125 kg/ha) | IPOHE herbicidal rating ([9]; rate 0.125 kg/ha)
3.5: Postemergence herbicidal rating ZEAMX (ZEAMX Corn, Field [10]; 0.008 kg/ha)
9.0: Postemergence herbicidal rating AMBEL (AMBEL Ragweed, Common [1]) | SETVI herbicidal rating (SETVI Foxtail, Green; rate 0.032 kg/ha) | SETVI herbicidal rating (SETVI Foxtail, Green; rate 0.062 kg/ha) | SETVI herbicidal rating (SETVI Foxtail, Green; rate 0.125 kg/ha) | Postemergence herbicidal rating IPOHE ([3]; 0.008 kg/ha) | Postemergence herbicidal rating IPOHE ([3]; 0.016 kg/ha) | Postemergence herbicidal rating IPOHE ([3]; 0.032 kg/ha) | Postemergence herbicidal rating IPOHE ([3]; 0.062 kg/ha) | CHEAL herbicidal rating ([5]; rate 0.016 kg/ha) | CHEAL herbicidal rating ([5]; rate 0.032 kg/ha) | CHEAL herbicidal rating ([5]; rate 0.062 kg/ha) | CHEAL herbicidal rating ([5]; rate 0.125 kg/ha) | Postemergence herbicidal rating CHEAL ([8]; 0.008 kg/ha) | Postemergence herbicidal rating CHEAL ([8]; 0.016 kg/ha) | Postemergence herbicidal rating CHEAL ([8]; 0.032 kg/ha) | Postemergence herbicidal rating CHEAL ([8]; 0.062 kg/ha) | Postemergence herbicidal rating ABUTH (ABUTH Velvetleaf; 0.008 kg/ha) | Postemergence herbicidal rating ABUTH (ABUTH Velvetleaf; 0.016 kg/ha) | Postemergence herbicidal rating ABUTH (ABUTH Velvetleaf; 0.032 kg/ha) | Postemergence herbicidal rating ABUTH (ABUTH Velvetleaf; 0.062 kg/ha)
8.0: Postemergence herbicidal rating GLXMAW (GLXMAW Soybean, Williams; 0.032 kg/ha) | Postemergence herbicidal rating GLXMAW (GLXMAW Soybean, Williams; 0.062 kg/ha)
2.0: ZEAMX herbicidal rating (ZEAMX Corn, Field [4]; rate 0.032 kg/ha) | Postemergence herbicidal rating CASOB (CASOB Sicklepod [7]; 0.016 kg/ha) | Postemergence herbicidal rating CASOB (CASOB Sicklepod [7]; 0.032 kg/ha)
6.5: Postemergence herbicidal rating GLXMAW (GLXMAW Soybean, Williams; 0.016 kg/ha)

From patent publication US20020111274A1, “1-alkyl-3-[1-(substituted phenyl) benzotriazol-6-yl] uracils” (BASF Aktiengesellschaft, priority 2000, published 2002)
